Patent US20230220047A1, “PEPTIDES FOR TREATMENT OF SEPSIS AND CANCER” (NORWEGIAN UNIVERSITY OF SCIENCE AND TECHNOLOGY (NTNU), priority 2020, published 2023)
Entries after “also recorded” stand apart in the source; their conditions may differ.

How the values were obtained:
Format in all cases: cell-based, human
TLR4 [1] = assay: ELISA/Bioplex of LPS-mediated cytokine secretion by THP-1 cells; details: for LPS-mediated secretion of IL-18, IL-6, IL-8 and TNF (27-plex Bioplex): 10 μM
Protocol: (A) Results of LDH assay and ELISAs analysing cytokine secretion after 5 h of stimulation with LPS (graphs show mean values for at least 3 biological replicates). […] In the tables average values are presented based on 3-5 biological replicates for each experiment. […]
TNF in supernatants was detected using a human TNF-alpha DuoSet ELISA (DY210) (R&D Systems); CXCL10 using a DuoSet ELISA (DY266) (R&D Systems); IL-1β using a BD OptEiA human IL-1β ELISA SetII (#557953, BD Biosciences): IFNβ using a VeriKine-HS™ Human Interferon-Beta Serum ELISA Kit (#41415) from PBL Assay Science. Some supernatants were also analysed by multiplex cytokine assay (Bio-Plex; Bio-Rad Laboratories Inc.) for IL-1β, IL-6, IL-8, CXCL10/IP-10. Results are presented as mean and SD for biological replicates for a representative donor (primary human macrophages), or at least three independent experiments for the model cell line THP-1. Statistical significance was evaluated in GraphPad Prizm 5.03. Data distribution was assumed to be normal but this was not formally tested. The difference between the two groups was determined by two-tailed t test.

TLR4 [2] = assay: Whole blood assay, LPS stimulation
Source text: (§1) […] Results are for at least 6 donors. The Wilcoxon matched-pairs signed rank test was used for statistical analysis between 2 groups in Prizm 8.2.1. In each graph, circles indicate whole blood pre-treated with water, squares indicate blood pre-treated with control peptide (average for treatment with Pen and C3-Pen), and triangles indicate pre-treatment with P7-Pen.
To evaluate the effect of peptides in an ex vivo system, a human whole blood model was used. Peripheral venous blood was drawn from 6 healthy donors into sterile polypropylene tubes (Thermo Scientific™ Nunc™ Biobanking and Cell Culture Cryogenic Tubes) containing the anti-coagulant Lepirudin (Refludan®; Celgene). […] Peptide solution or DPBS was distributed in equal volume (50 μL) to 1.8 mL sterile polypropylene tubes (Thermo Scientific™Nunc™ Biobanking and Cell Culture Cryogenic Tubes). […] Stimulation solutions were made by diluting K12 LPS or CL075 in DPBS to obtain a final concentration in whole blood of 100 ng/mL (LPS) or 1 μg/mL (CL075) after addition of 50 μL stimulation solution or DPBS. […] Tubes were incubated at 37° C. under constant rotation for 4 h. Finally, plasma was isolated from the whole blood specimens by centrifugation, collected in 96 well plates (Corning® 96 Well CellBIND® Microplates), and stored at −20/−80° C. until analysis by multiplex/27-plex cytokine assay or IFNβ ELISA (VeriKine-HS Human Interferon Beta Serum ELISA Kit; pbl Assay Science).

TLR4 [3] = assay: qPCR of LPS-mediated cytokine mRNA expression in THP-1 macrophages; details: for IFNβ and CXCL10 mRNA expression: 30 min pre-treatment, LPS
Protocol: SW480 (ATCC CCL-228) and Jurkat (ATCC Clone E6-1; TIB-152) cells were cultured in RPMI 1640 (Sigma-Aldrich, Schnelldorf, Germany) supplemented with 10% heat-inactivated FCS, penicillin/streptomycin (Life Technologies) and 20 mM L-Glutamine. THP-1 cells (ATCC TIB-202) were cultured in RPMI-1640 (high-glucose, ATCC) supplemented with 10% heat inactivated foetal calf serum (FCS), 100 nM penicillin/streptomycin and 5 μM β-mercaptoethanol (Sigma). THP-1 cells were differentiated with 60 ng/ml phorbol 12-myristate 13-acetate (PMA, Sigma) for 72 h, followed by 24 or 48 h in medium without PMA.
Total RNA was isolated from the cells using Qiazol reagent #79306 from QIAGEN, and chloroform extraction followed by purification on RNeasy Mini columns with DNAse digestion (Qiagen). cDNA was prepared using the Maxima First Strand cDNA Synthesis Kit for quantitative real-time polymerase chain reaction (RT-qPCR) (Thermo Fisher Scientific) according to the manufacturer's protocol. qPCR was performed using the PerfeCTa qPCR FastMix (Quanta Biosciences) in replicates and cycled in a StepOnePlus™ Real-Time PCR cycler. The following TaqMan® Gene Expression Assays (Applied Biosystems®) were used: IFNβ (Hs01077958_s1), TNF (Hs00174128_m1), TBP (Hs00427620_m1), CXCL10 (Hs01124251_g1), IL-6 (Hs00174131_m1) and IL-1β (Hs01555410_m1), for human cells; Ifnβ (Mm00439552_s1), Tnf (Mm00443258_m1), Tbp (Mm01277042_m1) and II-1β (Mm00434228_m1), for mouse cells. No RT controls were negative. The level of TBP mRNA was used for normalisation and results presented as relative expression compared to the control untreated sample. Relative expression was calculated using Pfaffl's mathematical model (Pfaffl, Nucleic Acids Research 29(9): e45, 2001). Results are presented as the mean and SD expression fold change for biological replicates relative to non-stimulated cells. Statistical significance was evaluated in GraphPad Prizm 5.03. Data distribution was assumed to be normal but this was not formally tested. The difference between the two groups was determined by two-tailed t test.

TLR8 = assay: Whole blood assay, CL075 stimulation
Source text: as §1
To evaluate the effect of peptides in an ex vivo system, a human whole blood model was used. Peripheral venous blood was drawn from 6 healthy donors into sterile polypropylene tubes (Thermo Scientific™ Nunc™ Biobanking and Cell Culture Cryogenic Tubes) containing the anti-coagulant Lepirudin (Refludan®; Celgene). Peptide solutions were made by diluting peptide stocks in DPBS (Dulbecco's Phosphate Buffered Saline with MgCl2 and CaCl2; Sigma-Aldrich) to obtain a final concentration of 140 μM. Peptide solution or DPBS was distributed in equal volume (50 μL) to 1.8 mL sterile polypropylene tubes (Thermo Scientific™Nunc™ Biobanking and Cell Culture Cryogenic Tubes). 250 μL whole blood was then added to the 1.8 mL tubes containing peptide solution or DPBS, and incubated at 37° C. under constant rotation for 1 h (concentration of peptides for pre-incubation: 23.3 μM). Stimulation solutions were made by diluting K12 LPS or CL075 in DPBS to obtain a final concentration in whole blood of 100 ng/mL (LPS) or 1 μg/mL (CL075) after addition of 50 μL stimulation solution or DPBS. Concentration of peptides in whole blood samples was reduced by this to 20 μM. Tubes were incubated at 37° C. under constant rotation for 4 h. Finally, plasma was isolated from the whole blood specimens by centrifugation, collected in 96 well plates (Corning® 96 Well CellBIND® Microplates), and stored at −20/−80° C. until analysis by multiplex/27-plex cytokine assay or IFNβ ELISA (VeriKine-HS Human Interferon Beta Serum ELISA Kit; pbl Assay Science).

Substance	inhibitory activity towards LPS-induced CXCL10, TNF and IL-1β secretion (ELISA) (TLR4 [1]; 15 μM, 30 min pre-treatment, LPS 100 ng/ml 5 h, relative to P7-Pen)	LPS-mediated secretion of IL-18, IL-6, IL-8 and TNF (27-plex Bioplex) (TLR4 [1]; 30 min pre-treatment)	LPS-mediated TNF secretion (ELISA) (TLR4 [1]; not shown)	LPS-mediated IFNβ secretion by whole blood cells (TLR4 [2]; pilot assay, 10 μM, LPS 100 ng/ml)	IFNβ and CXCL10 mRNA expression (TLR4 [3]; 10 μM)	LPS-mediated IFNβ, CXCL10 and TNF expression (TLR4 [3]; 10 μM, 1 h pre-treatment, LPS 100 ng/ml)	expression of IFNβ, CXCL10 and TNF mRNA (TLR4 [3]; 20 μM, 1 h pre-treatment, LPS 100 ng/ml)	LPS-induced cytokine expression levels (IFNβ, TNF and CXCL10 mRNA) (TLR4 [3]; peptide removed from media after pre-treatment, before LPS stimulation (data not shown))	CL075-mediated IFNβ secretion by whole blood cells (TLR8; pilot assay, 10 μM, CL075 1 μg/ml)	inhibition of CXCL10 secretion (TLR4 [1]; 10 μM applied 30 min before or simultaneously with LPS, LPS 6 h)	inhibitory effect on CXCL10 secretion (TLR4 [1]; 10 μM applied 1 h after addition of LPS)	TLR4-mediated IFNβ release by whole blood cells (TLR4 [2]; 20 μM, LPS 100 ng/ml 4 h)	LPS/TLR4-induced TNF, IL-6 and IL-1β secretion (TLR4 [2]; 20 μM, compared to control peptides)	TLR8-mediated pro-inflammatory cytokine secretion (TLR8; 20 μM, CL075)	TLR8-mediated IFNβ release/secretion by whole blood cells (TLR8; 20 μM, CL075 1 μg/ml 4 h)
Ac-ITVAASVTLTGRQIKIWFQNRRMKWKK-NH2 [Peptide P7-A4-Pen]	least effect on peptide activity	–	–	–	–	–	–	–	–	–	–	–	–	–	–
Ac-ITVYASVTLTGRRRRRRRRRRR-NH2 [Peptide P7-Arg11]	–	inhibitory effect	prevented TNF secretion	inhibited	reduced	clear inhibitory effect	totally inhibited	No changes	inhibited	–	–	–	–	–	–
Ac-ITVYASVTLTGRQIKIWFQNRRMKWKK-NH2 [Peptide P7-Pen]	–	inhibitory effect	–	–	reduced	–	–	–	–	very effective	reduced	effectively abrogated	significant reduction	no significant effect	effectively abrogated; also recorded: inhibited
